Measurements taken from ChEMBL document CHEMBL4507310, “Data for DCP probe A-1211212” (2021).

Key:
[1] = biological target: Adenosine receptor A1 (Homo sapiens) (UniProt P30542); test: A1 (h) Eurofins-Cerep binding assay; design: ligand concentration 1 nM; conditions: filed as antagonist, Compound concentration 10.0 uM
[2] = biological target: T1, Alpha-1B adrenergic receptor (Homo sapiens) (UniProt P35368); test: Alpha1B (h) Eurofins-Cerep binding assay; design: ligand concentration 0.15 nM; conditions: filed as antagonist, Compound concentration 10.0 uM
T1 sequence (whole entry): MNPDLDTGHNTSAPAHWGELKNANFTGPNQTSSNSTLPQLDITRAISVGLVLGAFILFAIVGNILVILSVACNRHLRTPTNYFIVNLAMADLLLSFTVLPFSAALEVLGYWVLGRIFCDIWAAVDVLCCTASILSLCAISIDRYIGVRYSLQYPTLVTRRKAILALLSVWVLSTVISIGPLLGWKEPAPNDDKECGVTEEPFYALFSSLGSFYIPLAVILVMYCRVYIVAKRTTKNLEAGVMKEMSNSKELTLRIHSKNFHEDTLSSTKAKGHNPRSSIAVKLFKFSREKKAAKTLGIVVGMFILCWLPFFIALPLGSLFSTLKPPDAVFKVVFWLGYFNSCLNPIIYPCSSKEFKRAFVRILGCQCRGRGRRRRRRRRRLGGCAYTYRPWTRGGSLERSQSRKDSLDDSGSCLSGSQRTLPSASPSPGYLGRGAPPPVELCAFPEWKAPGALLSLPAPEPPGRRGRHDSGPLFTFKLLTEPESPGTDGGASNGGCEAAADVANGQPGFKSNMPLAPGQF

[3] = biological target: Sigma non-opioid intracellular receptor 1 (Homo sapiens) (UniProt Q99720); test: sigma (non-selective) (h) Eurofins-Cerep binding assay; design: ligand concentration 10 nM; conditions: filed as agonist, Compound concentration 10.0 uM
[4] = tested on: Tyrosine-protein kinase ABL1 (Homo sapiens), P00519 [E255K]; conditions: Compound concentration 1000.0 nM
[5] = biological target: Atypical kinase COQ8A, mitochondrial (Homo sapiens) (UniProt Q8NI60); conditions: Compound concentration 1000.0 nM
[6] = biological target: 5'-AMP-activated protein kinase catalytic subunit alpha-2 (Homo sapiens) (UniProt P54646); conditions: Compound concentration 1000.0 nM
[7] = biological target: Calcium/calmodulin-dependent protein kinase type II subunit gamma (Homo sapiens) (UniProt Q13555); conditions: Compound concentration 1000.0 nM
[8] = biological target: Macrophage colony-stimulating factor 1 receptor (Homo sapiens) (UniProt P07333); conditions: Compound concentration 1000.0 nM
[9] = tested on: Epidermal growth factor receptor (Homo sapiens), P00533 [UNDEFINED MUTATION]; conditions: Compound concentration 1000.0 nM
[10] = biological target: Ephrin type-A receptor 3 (Homo sapiens) (UniProt P29320); conditions: Compound concentration 1000.0 nM
[11] = biological target: Ephrin type-B receptor 4 (Homo sapiens) (UniProt P54760); conditions: Compound concentration 1000.0 nM
[12] = biological target: Ephrin type-B receptor 6 (Homo sapiens) (UniProt O15197); conditions: Compound concentration 1000.0 nM
Chain of Ephrin type-B receptor 6 (Homo sapiens) (O15197 whole entry): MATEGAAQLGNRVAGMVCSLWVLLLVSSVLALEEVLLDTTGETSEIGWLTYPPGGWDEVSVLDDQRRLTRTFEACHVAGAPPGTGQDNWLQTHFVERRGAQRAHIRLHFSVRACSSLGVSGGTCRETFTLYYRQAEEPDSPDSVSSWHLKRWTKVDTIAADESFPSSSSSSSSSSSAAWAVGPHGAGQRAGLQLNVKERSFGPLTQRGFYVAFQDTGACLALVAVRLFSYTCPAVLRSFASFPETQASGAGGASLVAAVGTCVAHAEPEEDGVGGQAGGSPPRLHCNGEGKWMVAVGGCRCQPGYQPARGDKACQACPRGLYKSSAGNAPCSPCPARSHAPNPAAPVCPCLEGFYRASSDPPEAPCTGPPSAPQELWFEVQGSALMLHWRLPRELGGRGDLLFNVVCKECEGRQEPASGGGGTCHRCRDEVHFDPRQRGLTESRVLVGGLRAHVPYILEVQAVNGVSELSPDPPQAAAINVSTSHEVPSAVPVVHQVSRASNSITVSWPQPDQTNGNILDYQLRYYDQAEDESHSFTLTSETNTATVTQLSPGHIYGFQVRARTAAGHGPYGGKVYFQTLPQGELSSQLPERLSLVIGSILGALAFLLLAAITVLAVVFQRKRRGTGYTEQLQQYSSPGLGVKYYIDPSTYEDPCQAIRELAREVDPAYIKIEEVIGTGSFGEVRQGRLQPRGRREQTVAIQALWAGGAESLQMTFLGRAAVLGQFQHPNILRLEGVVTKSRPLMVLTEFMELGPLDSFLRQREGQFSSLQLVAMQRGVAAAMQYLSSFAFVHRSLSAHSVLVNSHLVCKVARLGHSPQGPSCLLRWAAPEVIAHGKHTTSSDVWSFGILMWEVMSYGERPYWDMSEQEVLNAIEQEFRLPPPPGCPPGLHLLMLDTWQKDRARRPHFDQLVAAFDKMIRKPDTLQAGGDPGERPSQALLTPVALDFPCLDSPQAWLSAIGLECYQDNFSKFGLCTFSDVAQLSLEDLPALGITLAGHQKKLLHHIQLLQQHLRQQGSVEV

[13] = tested on: Receptor-type tyrosine-protein kinase FLT3 (Homo sapiens), P36888 [UNDEFINED MUTATION]; conditions: Compound concentration 1000.0 nM
[14] = tested on: Mast/stem cell growth factor receptor Kit (Homo sapiens), P10721 [V559D,T670I]; conditions: Compound concentration 1000.0 nM
[15] = biological target: Mitogen-activated protein kinase kinase kinase 15 (Homo sapiens) (UniProt Q6ZN16); conditions: Compound concentration 1000.0 nM
[16] = biological target: Mitogen-activated protein kinase kinase kinase 9 (Homo sapiens) (UniProt P80192); conditions: Compound concentration 1000.0 nM
[17] = biological target: Serine/threonine-protein kinase MRCK alpha (Homo sapiens) (UniProt Q5VT25); conditions: Compound concentration 1000.0 nM
[18] = biological target: Myosin-IIIa (Homo sapiens) (UniProt Q8NEV4); conditions: Compound concentration 1000.0 nM
Chain of Myosin-IIIa (Homo sapiens) (Q8NEV4 whole entry): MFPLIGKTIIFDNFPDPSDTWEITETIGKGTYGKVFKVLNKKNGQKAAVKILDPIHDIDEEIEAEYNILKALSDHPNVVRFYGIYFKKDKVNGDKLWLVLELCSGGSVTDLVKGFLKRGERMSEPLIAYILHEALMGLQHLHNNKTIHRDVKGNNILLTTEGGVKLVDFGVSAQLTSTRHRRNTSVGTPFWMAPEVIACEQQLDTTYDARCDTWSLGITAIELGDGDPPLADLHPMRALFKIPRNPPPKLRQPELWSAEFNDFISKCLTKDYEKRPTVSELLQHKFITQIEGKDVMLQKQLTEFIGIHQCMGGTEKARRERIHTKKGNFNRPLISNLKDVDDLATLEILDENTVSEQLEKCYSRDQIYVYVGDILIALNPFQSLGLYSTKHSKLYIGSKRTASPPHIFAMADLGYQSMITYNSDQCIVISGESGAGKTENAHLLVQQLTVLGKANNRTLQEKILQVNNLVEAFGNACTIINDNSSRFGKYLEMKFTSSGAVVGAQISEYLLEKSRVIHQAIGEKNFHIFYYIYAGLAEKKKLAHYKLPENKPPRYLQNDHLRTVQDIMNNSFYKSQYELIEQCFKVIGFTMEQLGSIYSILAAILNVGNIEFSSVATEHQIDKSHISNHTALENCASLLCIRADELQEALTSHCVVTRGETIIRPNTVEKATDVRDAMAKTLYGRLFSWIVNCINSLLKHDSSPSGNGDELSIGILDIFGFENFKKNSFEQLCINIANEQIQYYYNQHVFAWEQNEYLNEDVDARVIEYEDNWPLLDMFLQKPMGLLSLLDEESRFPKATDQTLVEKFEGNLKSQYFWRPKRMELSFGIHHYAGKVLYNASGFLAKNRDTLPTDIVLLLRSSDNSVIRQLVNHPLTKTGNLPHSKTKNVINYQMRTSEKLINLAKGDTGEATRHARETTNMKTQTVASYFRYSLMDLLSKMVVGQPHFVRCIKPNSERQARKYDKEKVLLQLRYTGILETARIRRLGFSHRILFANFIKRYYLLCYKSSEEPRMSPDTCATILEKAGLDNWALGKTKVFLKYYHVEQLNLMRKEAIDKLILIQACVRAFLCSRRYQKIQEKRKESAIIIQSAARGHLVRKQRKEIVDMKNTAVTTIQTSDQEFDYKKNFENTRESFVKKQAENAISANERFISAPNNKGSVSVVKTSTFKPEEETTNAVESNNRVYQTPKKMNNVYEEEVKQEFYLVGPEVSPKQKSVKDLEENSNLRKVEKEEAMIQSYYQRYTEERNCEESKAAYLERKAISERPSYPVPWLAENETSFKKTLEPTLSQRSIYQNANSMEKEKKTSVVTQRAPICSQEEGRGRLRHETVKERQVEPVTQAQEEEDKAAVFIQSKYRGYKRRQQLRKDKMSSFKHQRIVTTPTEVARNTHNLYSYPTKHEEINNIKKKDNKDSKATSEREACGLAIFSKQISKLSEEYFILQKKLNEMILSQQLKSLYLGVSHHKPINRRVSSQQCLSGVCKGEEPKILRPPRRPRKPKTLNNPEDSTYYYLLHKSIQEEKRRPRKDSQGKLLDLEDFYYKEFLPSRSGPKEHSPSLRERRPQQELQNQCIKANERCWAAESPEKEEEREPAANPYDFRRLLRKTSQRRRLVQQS

[19] = biological target: Serine/threonine-protein kinase Nek1 (Homo sapiens) (UniProt Q96PY6); conditions: Compound concentration 1000.0 nM
[20] = tested on: Phosphatidylinositol 4,5-bisphosphate 3-kinase catalytic subunit alpha isoform (Homo sapiens), P42336 [E545A]; conditions: Compound concentration 1000.0 nM
Chain of Phosphatidylinositol 4,5-bisphosphate 3-kinase catalytic subunit alpha isoform (Homo sapiens), P42336 [E545A] (P42336 whole entry E545A, canonical isoform): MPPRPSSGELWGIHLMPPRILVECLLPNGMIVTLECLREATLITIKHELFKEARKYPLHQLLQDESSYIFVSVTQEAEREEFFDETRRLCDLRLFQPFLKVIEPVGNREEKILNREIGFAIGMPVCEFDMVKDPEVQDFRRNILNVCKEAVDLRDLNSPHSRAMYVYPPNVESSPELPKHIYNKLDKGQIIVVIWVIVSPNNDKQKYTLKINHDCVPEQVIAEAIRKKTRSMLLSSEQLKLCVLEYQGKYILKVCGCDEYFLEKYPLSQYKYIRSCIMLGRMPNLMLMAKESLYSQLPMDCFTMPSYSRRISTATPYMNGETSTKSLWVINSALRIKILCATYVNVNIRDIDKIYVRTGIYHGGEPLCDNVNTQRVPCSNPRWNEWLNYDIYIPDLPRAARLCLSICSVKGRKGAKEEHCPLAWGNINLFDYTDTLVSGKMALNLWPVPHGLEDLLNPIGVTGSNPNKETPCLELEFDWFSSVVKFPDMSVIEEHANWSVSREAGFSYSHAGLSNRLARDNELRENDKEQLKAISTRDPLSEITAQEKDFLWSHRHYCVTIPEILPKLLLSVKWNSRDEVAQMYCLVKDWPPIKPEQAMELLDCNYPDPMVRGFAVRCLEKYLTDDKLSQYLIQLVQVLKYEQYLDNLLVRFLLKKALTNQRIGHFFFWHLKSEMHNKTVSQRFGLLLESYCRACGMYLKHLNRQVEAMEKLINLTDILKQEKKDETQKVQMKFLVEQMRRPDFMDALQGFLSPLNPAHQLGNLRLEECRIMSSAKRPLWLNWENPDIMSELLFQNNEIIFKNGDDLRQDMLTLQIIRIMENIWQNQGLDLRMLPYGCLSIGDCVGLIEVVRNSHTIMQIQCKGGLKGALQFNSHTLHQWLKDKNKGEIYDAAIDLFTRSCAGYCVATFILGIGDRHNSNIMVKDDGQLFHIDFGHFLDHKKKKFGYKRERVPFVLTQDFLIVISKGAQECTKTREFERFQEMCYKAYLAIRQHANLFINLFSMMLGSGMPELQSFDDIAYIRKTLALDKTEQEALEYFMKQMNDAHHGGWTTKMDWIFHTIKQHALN

[21] = biological target: Serine/threonine-protein kinase PLK3 (Homo sapiens) (UniProt Q9H4B4); conditions: Compound concentration 1000.0 nM
Chain of Serine/threonine-protein kinase PLK3 (Homo sapiens) (Q9H4B4 whole entry, looked up): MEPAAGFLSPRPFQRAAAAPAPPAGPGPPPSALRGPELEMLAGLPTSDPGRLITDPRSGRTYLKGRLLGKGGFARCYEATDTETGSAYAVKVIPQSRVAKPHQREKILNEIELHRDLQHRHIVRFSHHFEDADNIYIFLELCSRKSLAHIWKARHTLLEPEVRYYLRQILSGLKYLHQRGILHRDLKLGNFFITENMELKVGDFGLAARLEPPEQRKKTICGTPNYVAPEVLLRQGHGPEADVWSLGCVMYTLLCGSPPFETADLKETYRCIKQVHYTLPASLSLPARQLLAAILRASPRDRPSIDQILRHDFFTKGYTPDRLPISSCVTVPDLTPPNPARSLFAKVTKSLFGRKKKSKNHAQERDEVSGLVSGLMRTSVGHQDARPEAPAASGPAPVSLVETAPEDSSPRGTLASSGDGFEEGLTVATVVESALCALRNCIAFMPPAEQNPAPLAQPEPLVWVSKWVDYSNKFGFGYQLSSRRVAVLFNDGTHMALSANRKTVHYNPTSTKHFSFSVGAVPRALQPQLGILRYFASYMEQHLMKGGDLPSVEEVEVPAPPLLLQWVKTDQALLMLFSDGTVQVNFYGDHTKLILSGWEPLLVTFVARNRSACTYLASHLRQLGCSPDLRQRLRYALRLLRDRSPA

[22] = biological target: Ribosomal protein S6 kinase alpha-4 (Homo sapiens) (UniProt O75676); conditions: Compound concentration 1000.0 nM
[23] = biological target: Ribosomal protein S6 kinase alpha-1 (Homo sapiens) (UniProt Q15418); conditions: Compound concentration 1000.0 nM
Chain of Ribosomal protein S6 kinase alpha-1 (Homo sapiens) (Q15418 whole entry): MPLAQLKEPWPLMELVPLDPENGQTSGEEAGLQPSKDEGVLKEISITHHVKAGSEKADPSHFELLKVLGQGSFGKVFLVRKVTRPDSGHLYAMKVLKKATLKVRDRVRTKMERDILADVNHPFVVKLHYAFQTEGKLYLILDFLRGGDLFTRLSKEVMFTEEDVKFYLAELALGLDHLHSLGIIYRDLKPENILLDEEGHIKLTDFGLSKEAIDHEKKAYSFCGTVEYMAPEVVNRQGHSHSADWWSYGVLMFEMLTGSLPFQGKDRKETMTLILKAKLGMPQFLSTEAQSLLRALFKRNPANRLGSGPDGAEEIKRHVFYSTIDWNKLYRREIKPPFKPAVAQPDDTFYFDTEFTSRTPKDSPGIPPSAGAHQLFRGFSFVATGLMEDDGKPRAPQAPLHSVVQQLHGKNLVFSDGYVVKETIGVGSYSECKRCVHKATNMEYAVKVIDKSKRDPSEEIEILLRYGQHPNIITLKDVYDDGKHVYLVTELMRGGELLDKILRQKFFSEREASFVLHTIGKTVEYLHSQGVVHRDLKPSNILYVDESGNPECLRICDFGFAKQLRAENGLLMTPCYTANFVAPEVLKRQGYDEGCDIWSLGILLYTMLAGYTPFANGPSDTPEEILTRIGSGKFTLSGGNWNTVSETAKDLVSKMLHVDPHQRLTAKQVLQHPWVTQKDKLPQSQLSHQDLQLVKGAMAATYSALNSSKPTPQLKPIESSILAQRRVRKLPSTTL

[24] = biological target: Serine/threonine-protein kinase SBK1 (Homo sapiens) (UniProt Q52WX2); conditions: Compound concentration 1000.0 nM
[25] = biological target: STE20-like serine/threonine-protein kinase (Homo sapiens) (UniProt Q9H2G2); conditions: Compound concentration 1000.0 nM
[26] = biological target: Serine/threonine-protein kinase TBK1 (Homo sapiens) (UniProt Q9UHD2); conditions: Compound concentration 1000.0 nM
[27] = biological target: Tyrosine-protein kinase TXK (Homo sapiens) (UniProt P42681); conditions: Compound concentration 1000.0 nM
[28] = biological target: Wee1-like protein kinase (Homo sapiens) (UniProt P30291); conditions: Compound concentration 1000.0 nM
[29] = biological target: Mu-type opioid receptor (Homo sapiens) (UniProt P35372); conditions: Compound concentration 10.0 uM
[30] = biological target: Histamine H4 receptor (Homo sapiens) (UniProt Q9H3N8); conditions: Compound concentration 10.0 uM
[31] = biological target: T2, Muscarinic acetylcholine receptor M2 (Homo sapiens) (UniProt P08172); conditions: Compound concentration 10.0 uM
T2 sequence (whole entry): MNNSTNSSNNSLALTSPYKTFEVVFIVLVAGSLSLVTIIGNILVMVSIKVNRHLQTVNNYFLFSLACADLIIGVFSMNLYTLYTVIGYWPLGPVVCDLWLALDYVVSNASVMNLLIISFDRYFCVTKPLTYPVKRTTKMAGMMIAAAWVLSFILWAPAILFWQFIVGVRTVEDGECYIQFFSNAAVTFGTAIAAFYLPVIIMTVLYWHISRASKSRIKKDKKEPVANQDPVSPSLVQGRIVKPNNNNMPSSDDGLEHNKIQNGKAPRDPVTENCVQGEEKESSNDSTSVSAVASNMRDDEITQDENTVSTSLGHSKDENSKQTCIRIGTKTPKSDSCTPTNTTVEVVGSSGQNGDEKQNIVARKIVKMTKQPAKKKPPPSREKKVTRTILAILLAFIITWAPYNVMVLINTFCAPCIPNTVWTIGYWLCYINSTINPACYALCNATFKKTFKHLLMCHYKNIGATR

SMILES	% Inhibition of Control Specific Binding (Mean n=2) [1]	% Inhibition of Control Specific Binding (Mean n=2) [2]	% Inhibition of Control Specific Binding (Mean n=2) [3]	residual activity [4]	residual activity [5]	residual activity [6]	residual activity [7]	residual activity [8]	residual activity [9]	residual activity [10]	residual activity [11]	residual activity [12]	residual activity [13]	residual activity [14]	residual activity [15]	residual activity [16]	residual activity [17]	residual activity [18]	residual activity [19]	residual activity [20]	further results
O=C(NS(=O)(=O)c1ccc(NCC2CCOCC2)c([N+](=O)[O-])c1)c1ccc(N2CCN(Cc3ccc(C(F)(F)F)cc3-c3ccc(Cl)cc3)CC2)cc1Oc1cnc2[nH]ccc2c1 [A-1210227]	13.6%	13.5%	-104%	91%	100%	100%	88%	85%	96%	100%	100%	82%	66%	100%	84%	100%	96%	85%	99%	86%	residual activity [21]: 100%; residual activity [22]: 100%; residual activity [23]: 95%; residual activity [24]: 100%; residual activity [25]: 100%; residual activity [26]: 74%; residual activity [27]: 94%; residual activity [28]: 100%; inhibition [29]: 10.7%; inhibition [30]: -2.4%; inhibition [31]: 1.6%
CO[C@H]1CC[C@H](CNc2ccc(S(=O)(=O)NC(=O)c3ccc(N4CCN(CC5=C(c6ccc(Cl)cc6)CC(C)(C)CC5)CC4)cc3Oc3cnc4[nH]ccc4c3)cc2[N+](=O)[O-])CC1 [A-1211212]	9.1%	15.4%	22.4%	74%	99%	93%	75%	88%	100%	90%	100%	87%	88%	88%	100%	84%	56%	82%	77%	67%	residual activity [21]: 100%; residual activity [22]: 95%; residual activity [23]: 69%; residual activity [24]: 100%; residual activity [25]: 67%; residual activity [26]: 60%; residual activity [27]: 100%; residual activity [28]: 100%; inhibition [29]: 10.2%; inhibition [30]: 4.94%; inhibition [31]: -2.68%
